{"source": "patent US20060211671A1", "about": "“Estrogen receptors” (priority 2001, published 2006)", "key": {"[1]": {"tested_on": "ovariectomized (ovx) mice", "experiment": "Effects of estrogen exposure on gonadal fat in ovariectomized WT, ERKO, BERKO and DERKO mice", "type": "in vivo", "conditions": "for gonadal fat mass, WT mice: ovx WT mice", "excerpt": "Male double heterozygous (ERα^+/−β^+/−) mice were mated with female double heterozygous (ERα^+/−β^+/−) mice, resulting in ERα^+/+β^+/+ wildtype (WT); ERα^−/−β^+/+=ERKO, ERα^+/+β^−/−=BERKO and ERα^−/−β^−/−=DERKO offsprings (Vidal O et al (2000) Proc Natl Sci USA, 97, 5474). The diet, housing and genetic background was as previously described in Vidal O et al (2000) supra. In the estrogen exposure experiments all mice were ovariectomized. Ovaries were removed after a flank incision and the incisions were closed with metallic clips. Mice were left to recover for four days after ovariectomy before start of experiments. After recovery mice were injected s.c with 2.3 μg/mouse/day of 17β-estradiol benzoate (Sigma, St Louis, Mo., USA) for 5 days/week during three weeks time. Control mice received injections of vehicle oil (olive oil, Apoteksbolaget, Göteborg, Sweden).\nOvariectomized (ovx) mice, lacking one or both of the two known ERs, were given estrogen and the effects on gonadal fat was studied. The effects of estrogen in mice with both ERα and ERβ inactivated (DERKO) were compared with the effects of estrogen in wild type (WT) mice.\nIn Table 2, the left part describes the effects of estrogen on fat in ovx wild type (WT) and DERKO mice. Three months old ovx mice were treated for three weeks with 2.3 μg/mouse/day of 17β-estradiol 5 days/week or olive oil as control (=vehicle). n=7 for WT vehicle, n=7 for WT estrogen, n=7 for DERKO vehicle, n=8 for DERKO estrogen. Values are given as means±SEM and expressed as % increase over vehicle treated animal. **=p<0.01 compared with vehicle treated mice. ++=p<0.01 effect of estrogen in DERKO compared with the effect of estrogen in WT, Student t-test. The right part of Table 2 describes the calculation of estrogen receptor α/β dependent and independent effects of estrogen. The effects of estrogen in WT and DERKO mice, as described in the left part of the table, were used for the calculation of the proportion of ERα/β dependent and independent effects of estrogen. The values are given as % of the total effect seen in WT mice."}, "[2]": {"tested_on": "orx male rats", "conditions": "cited from earlier work"}, "[3]": {"conditions": "calculated from effects in WT and DERKO mice, % of the total effect seen in WT mice"}}, "note": "Entries after “also recorded” stand apart in the source; their conditions may differ.", "data": [{"compound": "17β-estradiol benzoate [Estrogen]", "values": [{"measurement": "ERα/β Dependent effect of estrogen on Fat Weight", "setting": "[1]; [3]", "value": 93, "unit": "%"}, {"measurement": "ERα/β Independent effect of estrogen on Fat Weight", "setting": "[1]; [3]", "value": 7, "unit": "%"}, {"measurement": "gonadal fat mass, BERKO mice", "setting": "[1]; ovx BERKO mice, estrogen treatment, result in words (FIG. 6)", "value": "reduced; also recorded: hyperresponsiveness"}, {"measurement": "gonadal fat mass, DERKO mice", "setting": "[1]; ovx DERKO mice, estrogen treatment, result in words (FIG. 6)", "value": "not"}, {"measurement": "Effect of Estrogen (%) on Fat Weight, DERKO", "setting": "[1]; ovx DERKO mice, three months old, 2.3 μg/mouse/day s.c. 5 days/week for three weeks, mean±SEM, % increase over vehicle treated animal", "value": "−2.0 ± 5.2++ %"}, {"measurement": "gonadal fat mass, WT mice", "setting": "[1]; estrogen treatment, result in words (FIG. 6)", "value": "reduction of gonadal fat mass"}, {"measurement": "gonadal fat mass, WT mice", "setting": "[1]; estrogen treatment, result in words (FIG. 6), listed as estrogen", "value": "reduced"}]}, {"compound": "Oc1ccc2c(c1)CC[C@H](c1ccccc1)[C@@H]2c1ccc(OCCN2CCCC2)cc1", "note": "[lasofoxifene]", "values": [{"measurement": "body weight", "setting": "[2]", "value": "decreased"}, {"measurement": "food intake", "setting": "[2]", "value": "decreased"}, {"measurement": "total serum cholesterol", "setting": "[2]", "value": "decreased"}]}]}
